Test results: patent US5780589A, “Ultraselective opioidmimetic peptides and pharmacological and therapeutic uses thereof” (The United States of America as represented by the …, priority 1994, dated 1998)
Entries after “also recorded” stand apart in the source; their conditions may differ. Read-outs that look alike come from different tables or passages of the source. Non-standard residues stand in square brackets, D forms with d. Residues, ends and D or L forms follow the SMILES beside them. No end group written: not given here. Dmt = Cc1cc(O)cc(C)c1C[C@H](N)C(=O)O; Tic = O=C(O)[C@@H]1Cc2ccccc2CN1; dTic = O=C(O)[C@H]1Cc2ccccc2CN1

Legend:
[1] = molecular target: δ receptors (Mus musculus, UniProt P32300); details: for antagonist properties in MVD bioassay: in vitro mouse vas deferens
Chain of δ receptors (P32300 whole entry): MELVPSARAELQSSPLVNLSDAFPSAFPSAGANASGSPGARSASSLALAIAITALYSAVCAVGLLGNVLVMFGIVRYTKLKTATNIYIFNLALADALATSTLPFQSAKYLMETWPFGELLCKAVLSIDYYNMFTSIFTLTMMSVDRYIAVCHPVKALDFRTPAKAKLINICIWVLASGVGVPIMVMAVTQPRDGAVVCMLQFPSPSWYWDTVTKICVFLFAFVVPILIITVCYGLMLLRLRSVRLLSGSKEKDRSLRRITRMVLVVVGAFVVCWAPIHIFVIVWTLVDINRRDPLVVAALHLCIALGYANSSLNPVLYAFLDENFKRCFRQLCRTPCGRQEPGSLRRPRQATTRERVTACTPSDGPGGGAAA
Procedure: (§1) The in vitro pharmacological assays were undertaken using published methods (32) based on the organ bath technique of Kosterlitz and Watt (50). For μ receptors, a 2-3 cm segment of guinea-pig ileum (GPI) mounted in a 20 mL organ bath and for δ receptors, a single mouse vas deferens (MVD) was obtained from a mature animal.

[2] = molecular target: μ receptors (Cavia porcellus, UniProt P97266); assay: Guinea-pig ileum (GPI) bioassay, electrically stimulated contractions
Chain of μ receptors (P97266 whole entry, looked up): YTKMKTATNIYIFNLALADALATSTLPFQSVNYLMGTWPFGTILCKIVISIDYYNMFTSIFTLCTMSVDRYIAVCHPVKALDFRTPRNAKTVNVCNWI
Procedure: as §1

[3] = molecular target: T1, μ receptor (Rattus norvegicus, UniProt P33535); assay: μ receptor binding, rat membrane synaptosomes, [3H]DAGO; details: rat synaptosomes (P2), mean ± SEM
T1 construct: Rat membrane synaptosome preparations (P2 fraction) were prepared as detailed previously; from tissue; host or cells: rat synaptosomal membranes (P2 fraction)
T1 sequence (P33535 whole entry): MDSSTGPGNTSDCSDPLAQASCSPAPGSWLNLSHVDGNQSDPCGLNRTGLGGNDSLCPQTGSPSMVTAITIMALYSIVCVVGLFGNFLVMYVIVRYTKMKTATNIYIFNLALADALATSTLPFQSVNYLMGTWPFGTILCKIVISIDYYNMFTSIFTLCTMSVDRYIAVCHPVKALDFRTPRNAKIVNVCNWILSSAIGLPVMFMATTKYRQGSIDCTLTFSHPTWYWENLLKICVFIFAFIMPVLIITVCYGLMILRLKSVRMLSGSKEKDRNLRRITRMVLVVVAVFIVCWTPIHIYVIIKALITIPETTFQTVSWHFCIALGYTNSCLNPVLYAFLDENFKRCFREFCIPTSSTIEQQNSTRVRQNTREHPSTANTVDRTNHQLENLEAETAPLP
Procedure: (§2) Rat membrane synaptosome preparations (P2 fraction) were prepared as detailed previously, which included a preincubation step to reduce the presence of endogenous ligands and binding of G proteins (33,40). […] Samples were rapidly filtered through wetted glass fiber filters and thoroughly washed with 6 mL (3×2 mL) ice-cold 50 mM Tris-HCl, pH 7.5, containing 0.01-0.1% chicken egg albumin or bovine serum albumin. […] The filters were dried at 70° C. and the radioactivity determined after an overnight incubation period in CytoScint to maximize the radioactivity detected and reduce variability between samples. The IC50 values were converted to affinity constants (Ki) according to Cheng and Prusoff (48).

[4] = molecular target: T2, δ receptor (Rattus norvegicus, UniProt P33533); assay: Multi-site (one- vs two-site) δ receptor binding analysis; details: for δ receptor binding model fitted: one-site vs two-site; for Percent low-affinity sites: two-site δ receptor fit; for Ki: Prism fit
T2 construct: Rat membrane synaptosome preparations (P2 fraction) were prepared as detailed previously; from tissue; host or cells: rat synaptosomal membranes (P2 fraction)
T2 sequence (P33533 whole entry): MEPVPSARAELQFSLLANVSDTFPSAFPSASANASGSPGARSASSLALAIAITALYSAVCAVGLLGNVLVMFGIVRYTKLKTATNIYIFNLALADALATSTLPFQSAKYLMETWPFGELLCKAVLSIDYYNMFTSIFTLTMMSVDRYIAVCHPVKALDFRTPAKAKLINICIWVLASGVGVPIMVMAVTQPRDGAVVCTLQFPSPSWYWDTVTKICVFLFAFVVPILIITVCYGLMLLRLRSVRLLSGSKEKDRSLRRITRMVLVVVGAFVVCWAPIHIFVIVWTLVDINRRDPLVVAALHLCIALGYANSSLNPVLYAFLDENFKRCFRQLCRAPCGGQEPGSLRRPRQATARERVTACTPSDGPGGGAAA
Procedure: as §2
Multi-site binding analyses, based on stringent statistical methods, were performed as described in Bryant et al. (41) and Attila et al. (49). Receptor assays were conducted in triplicate with 25-35 graded concentrations of peptide; the resulting curves were both individually assessed and combined from several distinct assays, and analyzed using Prism™ (v. 1.02, GraphPad, San Diego, Calif.).

[5] = test system: mice; assay: Tail flick test (TFT), analgesia and morphine antagonism in mice; format: in vivo, CD-1 mice
Procedure: Animal procedures were conducted under protocols approved by the Animal Use and Care Committee, NIEHS, an AALAC accredited facility. Tail flick test (TFT) used a radiant heat source on the tail of Fisher 344 rats or CD-1 mice (52). The response was standardized by the subcutaneous (sc) injection of 5 mg morphine sulfate/kilogram (Kg) body weight or 0.1-0.25 mg morphine/Kg body weight by iv injection; peptides were injected in 100 μL volume in sterile saline. […] Intrathecal injection of peptides in mice used the method of Hylden and Wilcox (53). A base-line and cut-off 10 sec were determined in the TFT with naive and morphine-dosed animals, respectively,to prevent damage to the tail. 1 μg to 10 mg per kilogram of animal was used for iv, icv or sc; higher doses in the mg range were used for sc injection.

[6] = molecular target: T3, δ opioid receptor (Rattus norvegicus, UniProt P33533); assay: δ receptor binding, rat membrane synaptosomes, [3H]DPDPE; details: for Ki: [3H]DPDPE, rat synaptosomes (P2), mean ± SEM; for μ/δ (receptor selectivity): ratio Ki μ / Ki δ; for selectivity change on D-Tic substitution: δ→μ
T3 construct: Rat membrane synaptosome preparations (P2 fraction) were prepared as detailed previously; from tissue; host or cells: rat synaptosomal membranes (P2 fraction)
T3 sequence (P33533 whole entry): as above
Procedure: as §2

[7] = molecular target: T3, δ opioid receptor; details: data from Temussi et al. (39), cited from earlier work; for Ki: [3H]DPDPE; for μ/δ (receptor selectivity): ratio Ki μ / Ki δ
[8] = molecular target: T1, μ receptor; details: [3H]DAGO; data from Temussi et al. (39); cited from earlier work
[9] = concentration equivalent of pA2, against deltorphin C
[10] = high affinity δ site, read-out: Ki (nM) High
[11] = low affinity δ site, read-out: Ki (nM) Low
[12] = guinea-pig ileum, read-out: GPI IC50

Molecule: Oc1ccc2c3c1O[C@H]1c4[nH]c5ccccc5c4C[C@@]4(O)[C@@H](C2)N(CC2CC2)CC[C@]314 [Naltrindole, naltrindole, reference compound]
- MVD pA2 ([1]; antagonism against deltorphin C as the agonist): 9.2
- MVD [1, 9]: 0.7 nM
- GPI nM (with pA2) ([2]; guinea-pig ileum): 53 nM
- GPI pA2 ([2]; guinea-pig ileum): 7.3

Molecule: Cc1cc(O)cc(C)c1C[C@H](N)C(=O)N1Cc2ccccc2C[C@H]1C(=O)O [Peptide 1, Dmt-Tic-OH] (H-[Dmt]-[Tic]-OH; N-terminus assumed)
- Ki [3]: 3320 nM
- δ receptor binding model fitted [4]: one-site binding model
- Percent low-affinity sites [4]: 30.7 ± 91.5%
- Kb [1]: 6.31 nM
- MVD [1, 9]: 5.7 nM
- antagonist properties in MVD bioassay [1]: antagonist properties
- analgesia in tail flick test ([5]; iv, 100 ug/mouse where stated): no demonstratable analgesia; also recorded: no demonstrable analgesia
- block of the effect of morphine in tail flick test ([5]; morphine injected iv (0.25 mg/kg), peptide 100 ug/mouse iv): completely blocked

Molecule: Cc1cc(O)cc(C)c1C[C@H](N)C(=O)N1Cc2ccccc2C[C@H]1C(N)=O [Peptide 2, Dmt-Tic-NH2] (H-[Dmt]-[Tic]-NH2; N-terminus assumed)
- Ki [6]: 1.22 ± 0.09 nM
- Ki [4, 10]: 1.06 nM
- δ receptor binding model fitted [4]: one-site binding model
- Percent low-affinity sites [4]: 6.2 ± 40.1%
- Kb [1]: 63.1 nM
- MVD [1, 9]: 4.2 nM
- antagonist properties in MVD bioassay [1]: antagonist properties
- IC50 [2]: > 10000 nM

Molecule: Cc1cc(O)cc(C)c1C[C@H](N)C(=O)N1Cc2ccccc2C[C@@H]1C(=O)O [Peptide 3, Dmt-D-Tic-OH] (H-[Dmt]-[dTic]-OH; N-terminus assumed)
- Ki [3]: 224 ± 25.6 nM

Molecule: Cc1cc(O)cc(C)c1C[C@H](N)C(=O)N1Cc2ccccc2C[C@@H]1C(N)=O [Peptide 4, Dmt-D-Tic-NH2] (H-[Dmt]-[dTic]-NH2; N-terminus assumed)
- Ki [6]: 56.9 ± 2.9 nM

Molecule: Cc1cc(O)cc(C)c1C[C@H](N)C(=O)N1Cc2ccccc2C[C@H]1CO [Peptide 5, Dmt-Tic--CH2 OH]
- Ki [6]: 0.44 ± 0.14 nM
- μ/δ (receptor selectivity) [6]: 344
- Ki [3]: 151 ± 16.3 nM
- Ki [4, 10]: 0.13 nM
- Ki [4, 11]: 5.2 nM
- δ receptor binding model fitted [4]: two-site model
- Percent low-affinity sites [4]: 20.9 ± 5.3%
- Kb [1]: 100 nM
- MVD [1, 9]: 6.6 nM
- antagonist properties in MVD bioassay [1]: antagonist properties
- IC50 [2]: > 10000 nM

Molecule: Cc1cc(O)cc(C)c1C[C@@H]1NC(=O)[C@@H]2Cc3ccccc3CN2C1=O [Peptide 6, c(Dmt-Tic)]
- μ/δ (receptor selectivity) [6]: 66
- fold higher δ affinity relative to Tyr-Tic cognate ([6]; vs Tyr-Tic-OH (peptide 12) or c(Tyr-Tic) (peptide 17)): 4,000 fold
- Ki [3]: 635 ± 69.3 nM
- Ki [4, 10]: 0.09 nM
- Ki [4, 11]: 9.4 nM
- δ receptor binding model fitted [4]: two-site model
- Percent low-affinity sites [4]: 86.8 ± 3.9%
- Kb [1]: 3720 nM
- MVD nM [1, 9]: 3,800 nM
- antagonist properties in MVD bioassay [1]: antagonist properties
- IC50 [2]: 20000 ± 2000 nM

Molecule: Cc1cc(O)cc(C)c1C[C@@H]1NC(=O)[C@H]2Cc3ccccc3CN2C1=O [Peptide 7, c(Dmt-D-Tic)]
- Ki [6]: 499 ± 117 nM
- μ/δ (receptor selectivity) [6]: 1.5
- Ki [3]: 728 ± 72.9 nM

Molecule: Cc1cc(O)cc(C)c1C[C@H](N)C(=O)N1Cc2ccccc2C[C@H]1C(=O)N[C@@H](C)C(=O)O [Peptide 8, Dmt-Tic-Ala-OH] (H-[Dmt]-[Tic]-Ala-OH)
- Ki [6]: 0.285 ± 0.03 nM
- μ/δ (receptor selectivity) [6]: 20,396
- Ki [3]: 5810 nM
- Ki [4, 10]: 0.12 nM
- Ki [4, 11]: 4.8 nM
- Kb [1]: 3.98 nM
- IC50 [2, 12]: > 10000 nM

Molecule: Cc1cc(O)cc(C)c1C[C@H](N)C(=O)N1Cc2ccccc2C[C@H]1C(=O)N[C@@H](C)C(N)=O [Peptide 9, Dmt-Tic-Ala-NH2] (H-[Dmt]-[Tic]-Ala-NH2)
- μ/δ (receptor selectivity) [6]: 195
- Ki [4, 10]: 0.18 nM
- Ki [4, 11]: 10.7 nM
- IC50 [2, 12]: 4740 ± 900 nM

Molecule: Cc1cc(O)cc(C)c1C[C@H](N)C(=O)N1Cc2ccccc2C[C@@H]1C(=O)N[C@@H](C)C(=O)O [Peptide 10, Dmt-D-Tic-Ala-OH] (H-[Dmt]-[dTic]-Ala-OH)
- Ki [6]: 88.7 ± 13.8 nM
- μ/δ (receptor selectivity) [6]: 0.93
- Ki [3]: 82.8 ± 2 nM

Molecule: Cc1cc(O)cc(C)c1C[C@H](N)C(=O)N1Cc2ccccc2C[C@@H]1C(=O)N[C@@H](C)C(N)=O [Peptide 11, Dmt-D-Tic-Ala-NH2] (H-[Dmt]-[dTic]-Ala-NH2)
- Ki [6]: 46.4 ± 2.7 nM
- μ/δ (receptor selectivity) [6]: 0.13
- Ki [3]: 5.8 ± 0.85 nM

Molecule: N[C@@H](Cc1ccc(O)cc1)C(=O)N1Cc2ccccc2C[C@H]1C(=O)O [Peptide 12, Tyr-Tic-OH, reference compound] (H-Tyr-[Tic]-OH)
- μ/δ (receptor selectivity) [6]: 148

Molecule: N[C@@H](Cc1ccc(O)cc1)C(=O)N1Cc2ccccc2C[C@@H]1C(=O)O [Peptide 14, Tyr-D-Tic-OH, reference compound] (H-Tyr-[dTic]-OH)
- Ki [6]: 9050 nM
- μ/δ (receptor selectivity) [6]: 2.9
- Ki [3]: 26300 nM

Molecule: NC(=O)[C@H]1Cc2ccccc2CN1C(=O)[C@@H](N)Cc1ccc(O)cc1 [Peptide 15, Tyr-D-Tic-NH2] (H-Tyr-[dTic]-NH2)
- selectivity change on D-Tic substitution [6]: reversal of selectivity
- Ki [7]: 5960 nM
- μ/δ (receptor selectivity) [7]: 0.53
- Ki [8]: 3130 nM

Molecule: N[C@@H](Cc1ccc(O)cc1)C(=O)N1Cc2ccccc2C[C@H]1CO [Peptide 16, Tyr-Tic-CH2 OH, reference compound]
- Ki [6]: 128 ± 34.7 nM
- μ/δ (receptor selectivity) [6]: 86
- Ki [3]: 11000 nM

Molecule: O=C1N[C@@H](Cc2ccc(O)cc2)C(=O)N2Cc3ccccc3C[C@@H]12 [Peptide 17, c(Tyr-Tic), reference compound]
- Ki [6]: 41800 nM
- μ/δ (receptor selectivity) [6]: 1.2
- Ki [3]: 51500 nM

Molecule: O=C1N[C@@H](Cc2ccc(O)cc2)C(=O)N2Cc3ccccc3C[C@H]12 [Peptide 18, c(Tyr-D-Tic), reference compound]
- Ki [6]: 8910 nM
- μ/δ (receptor selectivity) [6]: 14
- Ki [3]: 128000 nM

Molecule: C[C@H](NC(=O)[C@H]1Cc2ccccc2CN1C(=O)[C@@H](N)Cc1ccc(O)cc1)C(=O)O [Peptide 21, Tyr-D-Tic-Ala-OH, reference compound] (H-Tyr-[dTic]-Ala-OH)
- Ki [6]: 2350 nM
- μ/δ (receptor selectivity) [6]: 6
- Ki [3]: 14000 nM

Molecule: C[C@H](NC(=O)[C@H]1Cc2ccccc2CN1C(=O)[C@@H](N)Cc1ccc(O)cc1)C(N)=O [Peptide 22, Tyr-D-Tic-Ala-NH2] (H-Tyr-[dTic]-Ala-NH2)
- selectivity change on D-Tic substitution [6]: reversal of selectivity
- Ki [7]: 21100 nM
- μ/δ (receptor selectivity) [7]: 0.39
- Ki [8]: 8150 nM

Molecule: Tyr-Tic-NH2 [Peptide 13]
- Ki [7]: 166 ± 48.1 nM
- μ/δ (receptor selectivity) [7]: 173
- Ki [8]: 28700 nM

Molecule: Tyr-[Tic]-Ala-NH2 [Peptide 20]
- Ki [7]: 55.5 ± 13.7 nM
- μ/δ (receptor selectivity) [7]: 610
- Ki [8]: 33800 nM

Molecule: Tyr-[Tic]-Ala-OH [Peptide 19]
- Ki [7]: 56.1 ± 10.3 nM
- μ/δ (receptor selectivity) [7]: 148
- Ki [8]: 8290 nM
